Measured values published in US9964534B2, “Method of making a skin care composition” (The Procter & Gamble Company, priority 2014, dated 2018).

How the values were obtained:
HMGB1 = HMGB1 quantitation from keratinocytes (ELISA of supernatant, normalized to total protein); format: cell-based; conditions: for HMGB1 levels relative to the control: result in words
Method: Make a 210 mL suspension of keratinocytes at 40,000 cells/mL using suitable media to make a cell suspension. Place 2 mL of the cell suspension into the appropriate number of wells of one or more 12-well plates as needed, using the same velocity and insertion angle for each well as cells are pipetted. Incubate the 12-well plates overnight at 37° C. If the cell plating quality is poor (e.g., cells are not attached to plate or seeding density is uneven), discard and start over. Prepare a dosing media by diluting the test agent to the desired concentration (e.g., from 0.0001% to 10%) in a suitable media (e.g., the same media used to make the cell suspension). […] It is not uncommon for skin care actives to be included in skin care compositions at these levels. Optionally, include sufficient solublizer to provide 0.1% solublizer in the test sample. Add 2 mL of dosing media into each well of a 12-well plate and incubate at 4° C. overnight or until test agent is to be added to the test sample. Place prepared dosing media in the 37° C. incubator for at least 30 minutes, or until pH has equalized. When dosing media is warmed and at proper pH, dose the cells. Incubate the dosed cells at 37° C. for 6 hours. Keratinocytes (or other cells) are plated out in 12 well plates as described above with a seeding density of about […] and incubated overnight at 37° C. with 5% CO2. The keratinocytes are dosed with a dosing medium containing the test agent and the plates returned to the incubator for another 20 hours. The supernatant for each is collected and the HMGB1 level analyzed using ELISA (USCN Life Sciences) in accordance with manufacturer's instructions. The cells are lysed with Glo Lysis Buffer (Promega) and the protein levels determined using BCA kits (Pierce) per manufacturer's instructions. The values of HMGB1 determined by ELISA and normalized to total protein levels from the cells.

[1] = tested on: primary human melanocytes; assay: Melanocyte dendricity and size measurements (Incucyte ZOOM live cell imaging); format: cell-based; conditions: melanocytes contacted with HMGB1, over the span of three days
Source text: The ability of a test agent to inhibit dendricity and cell body growth in melanocytes may be determined by contacting a sample of melanocytes with the test agent, measuring the change in dendricity and/or cell body growth and comparing the measured indicator to a control to determine if the test agent is identified as a skin tone agent. In some instances, it is important for the test sample to include a source of HMGB1. For example, an amount of HMGB1 (e.g., recombinant HIS-tagged HMGB1 available from Sigma) may be included in the test sample (e.g., at a final level of 0.1 μg/mL), or the test sample may include another type of cell, which can be stimulated to produce HMGB1. A control may be obtained by measuring the dendricity and/or cell body size of the melanocytes prior to contact with the test agent, measuring the dendricity and/or cell body size of the melanocytes in a control sample and/or from the dendricity and/or cell body size of melanocytes published in scientific literature, if available.
Primary human melanocytes (ATCC) are cultured for 2 passages in T150 flasks. For dendricity experiments, melanocytes are plated into 96 well plates (clear) at a density of about 5000 cells/well. The plates are placed into an Incucyte ZOOM® live cell imaging system (Essen Bioscience, Ann Arbor, Mich.) which resides inside a 37° C., 5% CO2 incubator. […]

methyl hydroxycinnamic acid [ME-HCA]
HMGB1 levels relative to the control (HMGB1): significantly reduced
HMGB1 (pg)/protein (ug) (HMGB1; test agent 0.001%): 33 pg/ug protein
HMGB1 (pg)/protein (ug) (HMGB1; test agent 0.005%): 28 pg/ug protein
HMGB1 (pg)/protein (ug) (HMGB1; test agent 0.02%): 4 pg/ug protein

hydroxycinnamic acid [HCA]
HMGB1 levels relative to the control (HMGB1): significantly reduced
HMGB1 (pg)/protein (ug) (HMGB1; test agent 0.001%): 29 pg/ug protein
HMGB1 (pg)/protein (ug) (HMGB1; test agent 0.005%): 6 pg/ug protein
HMGB1 (pg)/protein (ug) (HMGB1; test agent 0.02%): 2 pg/ug protein

B1: HMGB1: recombinant HIS-tagged HMGB1 available from Sigma; high-mobility group protein B1, SEQ ID No. 1 (protein, listed as Homo sapiens)
chain: MGKGDPKKPRGKMSSYAFFVQTCREEHKKKHPDASVNFSEFSKKCSERWKTMSAKEKGKFEDMAKADKARYEREMKTYIPPKGETKKKFKDPNAPKRPPSAFFLFCSEYRPKIKGEHPGLSIGDVAKKLGEMWNNTAADDKQPYEKKAAKLKEKYEKDIAAYRAKGKPDAAKKGVVKAEKSKKKKEEEEDEEDEEDEEEEEDEEDEDEEEDDDDE
modifications: His tag
cell body size of melanocytes relative to the control [1]: significantly larger
dendricity (dendrite length) of melanocytes relative to the control [1]: significantly longer
